From ChEMBL document CHEMBL1150276, “2-amino-1,3-thiazol-4(5H)-ones as potent and selective 11beta-hydroxysteroid dehydrogenase type 1 inhibitors: enzyme-ligand co-crystal structure and demonstration of pharmacodynamic effects in C57Bl/6 mice” (J Med Chem, 2008)

Tests used:
[1] = biological target: T1, 11-beta-hydroxysteroid dehydrogenase type 2 (Homo sapiens, UniProt P80365); test: biochemical
T1 sequence (P80365 whole entry): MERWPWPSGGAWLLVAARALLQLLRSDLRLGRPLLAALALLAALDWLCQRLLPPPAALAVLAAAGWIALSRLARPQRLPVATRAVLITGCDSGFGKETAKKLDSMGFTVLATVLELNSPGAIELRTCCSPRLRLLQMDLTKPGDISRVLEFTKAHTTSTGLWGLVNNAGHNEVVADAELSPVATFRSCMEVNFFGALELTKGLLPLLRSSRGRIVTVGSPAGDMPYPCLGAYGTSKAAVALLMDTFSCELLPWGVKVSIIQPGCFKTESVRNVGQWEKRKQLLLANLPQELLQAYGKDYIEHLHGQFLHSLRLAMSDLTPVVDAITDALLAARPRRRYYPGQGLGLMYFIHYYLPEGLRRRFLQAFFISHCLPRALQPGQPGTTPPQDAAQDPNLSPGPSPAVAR
Description: Binding affinity to human 11beta HSD2 in HEK293 cells by scintillation proximity assay

[2] = biological target: 11-beta-hydroxysteroid dehydrogenase 1 (Homo sapiens, UniProt P28845)
Description: Binding affinity to human 11beta HSD1 expressed in Escherichia coli by scintillation proximity assay

[3] = Ratio of Ki for mouse 11beta HSD1 over Ki for human 11beta HSD1
Mus musculus [4] = test: Ex vivo inhibition of 11beta HSD1 activity in C57BL/6 mouse adipose tissue at 30 mg/kg, po after 2 hrs; format: functional; design: scale not given: the % may be the effect or the level left
[5] = Plasma concentration in C57BL/6 mouse plasma at 30 mg/kg, po after 2 hrs; format: ADME, organism-based; design: dose 30 mg/kg, route oral
[6] = Volume of distribution at steady state in rat at 0.5 mg/kg, iv; format: ADME, organism-based; design: dose 0.5 mg/kg, route intravenous; details: in vivo, read-out: Vdss
Rattus norvegicus = test: AUC(0 to infinity) in rat at 2 mg/kg, po; format: ADME, organism-based, Plasma; design: time infinity, dose 2 mg/kg, route oral; details: in vivo
[7] = Oral bioavailability in rat at 2 mg/kg; format: ADME, organism-based; details: in vivo
[8] = Clearance in rat at 0.5 mg/kg, iv; format: ADME, organism-based; design: dose 0.5 mg/kg, route intravenous; details: in vivo
[9] = Tmax in rat at 2 mg/kg, po; format: ADME, organism-based; design: dose 2 mg/kg, route oral; details: in vivo
Mus musculus [10] = test: Ex vivo inhibition of 11beta HSD1 activity in C57BL/6 mouse liver at 30 mg/kg, po after 2 hrs; format: functional; design: scale not given: the % may be the effect or the level left
Plasma [11] = test: Protein binding in C57BL/6 mouse plasma assessed as fraction unbound at 30 mg/kg, po after 6 hrs; format: ADME, organism-based; design: dose 30 mg/kg, route oral; details: in vivo
Plasma [12] = test: Protein binding in C57BL/6 mouse plasma assessed as fraction unbound at 30 mg/kg, po after 2 hrs; format: ADME, organism-based; design: dose 30 mg/kg, route oral; details: in vivo
[13] = Plasma concentration in C57BL/6 mouse plasma at 30 mg/kg, po after 6 hrs; format: ADME, organism-based; design: dose 30 mg/kg, route oral
[14] = biological target: 11-beta-hydroxysteroid dehydrogenase 1 (Mus musculus, UniProt P50172); test: Binding affinity to C57BL/6 mouse recombinant 11beta HSD1 by scintillation proximity assay
[15] = Half life in rat at 2 mg/kg, po; format: ADME, organism-based; design: dose 2 mg/kg, route oral; details: in vivo
[16] = biological target: 11-beta-hydroxysteroid dehydrogenase 1 (Rattus norvegicus, UniProt P16232); test: Binding affinity to rat recombinant 11beta HSD1 by scintillation proximity assay
Mus musculus [17] = test: Ex vivo inhibition of 11beta HSD1 activity in C57BL/6 mouse adipose tissue at 30 mg/kg, po after 6 hrs; format: functional; design: scale not given: the % may be the effect or the level left
Mus musculus [18] = test: Ex vivo inhibition of 11beta HSD1 activity in C57BL/6 mouse liver at 30 mg/kg, po after 6 hrs; format: functional; design: scale not given: the % may be the effect or the level left

Chain of 11-beta-hydroxysteroid dehydrogenase 1 (Homo sapiens, UniProt P28845) (P28845 whole entry): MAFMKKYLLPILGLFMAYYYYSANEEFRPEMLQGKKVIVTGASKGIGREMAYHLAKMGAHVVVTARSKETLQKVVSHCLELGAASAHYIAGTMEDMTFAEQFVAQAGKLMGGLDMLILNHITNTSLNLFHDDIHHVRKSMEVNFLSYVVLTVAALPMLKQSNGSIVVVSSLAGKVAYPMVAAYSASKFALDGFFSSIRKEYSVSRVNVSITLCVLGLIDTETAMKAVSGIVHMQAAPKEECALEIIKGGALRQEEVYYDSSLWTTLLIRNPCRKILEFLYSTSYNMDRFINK
Chain of 11-beta-hydroxysteroid dehydrogenase 1 (Mus musculus, UniProt P50172) (P50172 whole entry): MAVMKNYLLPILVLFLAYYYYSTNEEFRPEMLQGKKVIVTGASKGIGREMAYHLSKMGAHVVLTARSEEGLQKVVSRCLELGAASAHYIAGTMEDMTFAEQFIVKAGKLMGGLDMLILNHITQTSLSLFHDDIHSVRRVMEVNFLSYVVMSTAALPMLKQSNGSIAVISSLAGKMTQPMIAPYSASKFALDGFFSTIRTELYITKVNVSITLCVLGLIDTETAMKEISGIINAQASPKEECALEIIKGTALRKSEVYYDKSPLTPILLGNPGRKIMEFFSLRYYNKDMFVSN
Chain of 11-beta-hydroxysteroid dehydrogenase 1 (Rattus norvegicus, UniProt P16232) (P16232 whole entry): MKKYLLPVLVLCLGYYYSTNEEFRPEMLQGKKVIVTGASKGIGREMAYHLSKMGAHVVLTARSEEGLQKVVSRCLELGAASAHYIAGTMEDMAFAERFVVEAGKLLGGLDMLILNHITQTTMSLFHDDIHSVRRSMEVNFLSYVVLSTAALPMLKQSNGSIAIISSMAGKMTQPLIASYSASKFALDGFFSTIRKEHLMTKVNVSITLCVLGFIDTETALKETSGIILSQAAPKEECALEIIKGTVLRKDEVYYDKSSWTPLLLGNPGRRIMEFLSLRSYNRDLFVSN

With `CCC1(CC)SC(NC23CC4CC(CC2C4)C3)=NC1=O` the IC50 [1] was > 10000 nM and the Ki [2] was 13 nM.

Work on `CCCC1(C)SC(NC2C(C)(C)C2(C)C)=NC1=O` (racemic) yielded a Ki [2] of 38 nM.

Molecule `CCC1(CC)SC(NC23CC4CC(CC(C4)C2)C3)=NC1=O` has a Ki [2] of 20 nM.

In the case of `CCC1(C)SC(NCC2CCCCC2)=NC1=O` (racemic), the Ki [2] is reported as 64 nM.

For `CCC1(CC)SC(NC2CCCCCCC2)=NC1=O`, the IC50 [1] was > 10000 nM and the Ki [2] was 26 nM.

For `CCCC1(C)SC(NC2CCCCCCC2)=NC1=O` (racemic), the IC50 [1] was > 10000 nM and the Ki [2] was 28 nM.

In the case of `CCC1(C)SC(NC23CCC(CC2)C3)=NC1=O` (racemic), the IC50 [1] is reported as > 10000 nM and the Ki [2] is reported as 73 nM.

`CCC1(C)SC(Nc2ccccc2F)=NC1=O` (configuration not stated) gave a Ki [2] of 151 nM.

`CCCC1(C)SC(NC23CC4CC(CC(C4)C2)C3)=NC1=O` (racemic) gave a Ki [2] of 24 nM.

With `CCC1(C)SC(NC2C(C)(C)C2(C)C)=NC1=O` (racemic) the Ki [2] was 58 nM.

`CCCC1(C)SC(NC23CC4CC(CC2C4)C3)=NC1=O` (racemic) showed a Ki [2] of 12 nM.

`CCC1(C)SC(NC2C3CCC2CC3)=NC1=O` (racemic) gave a Ki [2] of 372 nM.

With `O=C1N=C(NC23CC4CC(CC(C4)C2)C3)SC12CCCC2` the Ki [2] was 28 nM.

Work on `CCCC1(C)SC(NCC2CCCCC2)=NC1=O` (racemic) yielded a Ki [2] of 34 nM.

In the case of `CCC1(C)SC(NC23CC4CC(CC2C4)C3)=NC1=O` (racemic), the IC50 [1] is reported as > 10000 nM and the Ki [2] is reported as 13 nM.

Work on `CCC1(C)SC(NC2CCCCC2)=NC1=O` (racemic) yielded a Ki [2] of 126 nM.

For `CCC1(C)SC(NC23CC4CC(CC(C4)C2)C3)=NC1=O` (racemic), the Ki [2] was 24 nM.

With `O=C1N=C(NC2CCCCCCC2)SC12CCCC2` the IC50 [1] was > 10000 nM and the Ki [2] was 14 nM.

With `CCCC1(C)SC(NC2CCCCCC2)=NC1=O` (racemic) the IC50 [1] was > 10000 nM and the Ki [2] was 32 nM.

For `CCC1(C)SC(NC2CCCCCC2)=NC1=O` (racemic), the IC50 [1] was > 10000 nM and the Ki [2] was 82 nM.

With `CCCC1(C)SC(NC2CCCCC2)=NC1=O` (racemic) the Ki [2] was 55 nM.

For `CCC1SC(Nc2ccccc2C)=NC1=O` (configuration not stated), the IC50 [1] was > 10000 nM and the Ki [2] was 189 nM.

In the case of `CCCC1(C)SC(NC23CCC(CC2)C3)=NC1=O` (racemic), the Ki [2] is reported as 25 nM.

With `CCCC1(C)SC(NC2C3CCC2CC3)=NC1=O` (racemic) the IC50 [1] was > 10000 nM and the Ki [2] was 149 nM.

In the case of `CCC1(C)SC(NC2CCCCCCC2)=NC1=O` (racemic), the IC50 [1] is reported as > 10000 nM and the Ki [2] is reported as 47 nM.

With `O=C1N=C(NC23CC4CC(CC2C4)C3)SC12CCCC2` the Ratio Ki [3] was 40, the Activity (Mus musculus [4]) was 86% and the IC50 [1] was > 10000 nM. The concentration at 2 h [5] was 20 µM, the Vd [6] was 1.84 L/kg and the AUC (Rattus norvegicus) was 175 ng·h/mL. The bioavailability [7] was 45%, the clearance [8] was 104 mL/min/kg and the Tmax [9] was 2.5 h. The Activity (Mus musculus [10]) was 89%, the Activity (Plasma [11]) was 44 nM and the Fu (Plasma [11]) was 0.63%. The Activity (Plasma [12]) was 120 nM, the Fu (Plasma [12]) was 0.63% and the concentration at 6 h [13] was 7.3 µM. The Ki [14] was 120 nM, the half-life [15] was 2 h and the Ki [16] was 180 nM. It also gave a Ki [2] of 3 nM, an Activity (Mus musculus [17]) of 87% and an Activity (Mus musculus [18]) of 79%.
